Among the test systems are NCI-H522 lung; A498 renal; COLO 205 colon; DU-145 prostate; T-47D breast; KM12 colon; LOX IMVI melanoma; NCI-H23 lung; HT29 colon; IGROV1 ovarian; OVCAR-3 ovarian; HCT-15 colon; NCI-H460 lung; HCC-2998 colon; MOLT-4 leukemia; M14 melanoma; CCRF-CEM leukemia; SNB-19 CNS; U251 CNS; SK-MEL-28 melanoma.
What all share (assay): NCI anticancer screen, dose series, 48 h

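Test compounds were applied to cells in 96-well plates for 48 hours at 5 doses. TGI marks complete inhibition of growth.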

As to `O=C(Nc1ccc(Cl)c(Cl)c1)C(=O)C(C1OC(=O)c2ccccc21)[N+](=O)[O-]` (stereo not given), the TGI in the experiment on NCI-H522 lung, in the experiment on A498 renal, in the experiment on COLO 205 colon, in the experiment on DU-145 prostate, in the experiment with T-47D breast and with KM12 colon was > 100 µM in each case. The TGI in the experiment on LOX IMVI melanoma, in the experiment with NCI-H23 lung, in the experiment with HT29 colon, in the experiment with IGROV1 ovarian, in the experiment on OVCAR-3 ovarian and in the experiment with HCT-15 colon was > 100 µM in each case. Besides, the TGI with NCI-H460 lung, with HCC-2998 colon, with MOLT-4 leukemia, with M14 melanoma, in the experiment on CCRF-CEM leukemia and in the experiment on SNB-19 CNS was > 100 µM in each case. The TGI with U251 CNS and with SK-MEL-28 melanoma was > 100 µM each time.
On to `C[C@@H](C(=O)O)c1ccc(-c2ccccc2)c(F)c1`, for which the TGI with NCI-H522 lung, in the experiment with A498 renal, in the experiment with COLO 205 colon, in the experiment on DU-145 prostate, in the experiment with T-47D breast and in the experiment with KM12 colon was > 100 µM in each case. Further, the TGI with LOX IMVI melanoma, in the experiment with NCI-H23 lung, in the experiment on HT29 colon, in the experiment with IGROV1 ovarian, with OVCAR-3 ovarian and with HCT-15 colon was > 100 µM each time. The TGI with NCI-H460 lung, in the experiment on HCC-2998 colon, in the experiment on MOLT-4 leukemia, with M14 melanoma, with CCRF-CEM leukemia and in the experiment with SNB-19 CNS was > 100 µM each time. Besides, the TGI in the experiment with U251 CNS and with SK-MEL-28 melanoma was > 100 µM in each case.
As for `CC(C)(C)c1ccc(-c2nc3ccccc3c(=O)o2)cc1`, the TGI in the experiment on NCI-H522 lung is 69.6 µM; in the experiment on A498 renal it was > 100 µM; in the experiment with COLO 205 colon, 78.7 µM; in the experiment with DU-145 prostate, > 100 µM; in the experiment on T-47D breast, > 100 µM; with KM12 colon, > 100 µM. For the same compound, the TGI in the experiment on LOX IMVI melanoma was 37.4 µM; with NCI-H23 lung, > 100 µM; in the experiment with HT29 colon it was > 100 µM; in the experiment with IGROV1 ovarian, > 100 µM; in the experiment with OVCAR-3 ovarian, 62.1 µM; in the experiment with HCT-15 colon, > 100 µM. The TGI in the experiment with NCI-H460 lung was > 100 µM; in the experiment on HCC-2998 colon it was 85.5 µM; in the experiment on MOLT-4 leukemia it was 47.8 µM; in the experiment with M14 melanoma, > 100 µM; with CCRF-CEM leukemia, 44.2 µM; in the experiment on SNB-19 CNS it was > 100 µM. Besides, the TGI in the experiment on U251 CNS and with SK-MEL-28 melanoma was > 100 µM in each case.
With `Cn1c(=O)nc2n(CCO)ccnc-2c1=O`, the TGI in the experiment on NCI-H522 lung, with A498 renal, with COLO 205 colon, in the experiment on DU-145 prostate, with T-47D breast and in the experiment with KM12 colon was > 100 µM in each case. Also, the TGI with LOX IMVI melanoma, in the experiment with NCI-H23 lung, in the experiment on HT29 colon, in the experiment on IGROV1 ovarian, in the experiment with OVCAR-3 ovarian and with HCT-15 colon was > 100 µM each time. In addition, the TGI with NCI-H460 lung, in the experiment on HCC-2998 colon, with MOLT-4 leukemia, in the experiment with M14 melanoma, with CCRF-CEM leukemia and in the experiment with SNB-19 CNS was > 100 µM each time. Also, the TGI in the experiment on U251 CNS and with SK-MEL-28 melanoma was > 100 µM throughout.
As to `C[C@@H]1CCC2[C@@H](C)[C@H](O[C@H]3O[C@@H]4O[C@@]5(C)CCC6[C@H](C)CCC([C@H]3C)[C@]64OO5)O[C@@H]3O[C@@]4(C)CCC1[C@@]23OO4` (stereo not given in full), the TGI was 12.9 µM in the experiment with NCI-H522 lung; 9.51 µM with A498 renal; 0.326 µM in the experiment on COLO 205 colon; 19.5 µM with DU-145 prostate; 22.2 µM with T-47D breast; 13.3 µM in the experiment with KM12 colon. Further, the TGI in the experiment with LOX IMVI melanoma was found to be 1.58 µM; in the experiment with NCI-H23 lung, 13.3 µM; in the experiment with HT29 colon, 13.4 µM; with IGROV1 ovarian, 18.4 µM; in the experiment with OVCAR-3 ovarian, 18.3 µM; in the experiment on HCT-15 colon, 12.4 µM. The TGI was 17 µM in the experiment with NCI-H460 lung; 14.5 µM in the experiment on HCC-2998 colon; 15 µM in the experiment on MOLT-4 leukemia; 20.6 µM in the experiment with M14 melanoma; 18.3 µM in the experiment with CCRF-CEM leukemia; 25.2 µM in the experiment with SNB-19 CNS. The TGI with U251 CNS came out at 23.8 µM; with SK-MEL-28 melanoma it was 27.3 µM.
Turning to `CN(C)CCSC(=Nc1ccccc1)N1C=COC=C1`, the TGI is 34 µM with NCI-H522 lung; > 100 µM with A498 renal; > 72.2 µM in the experiment with COLO 205 colon; > 100 µM in the experiment on DU-145 prostate; 74.4 µM in the experiment with T-47D breast; > 100 µM in the experiment with KM12 colon. Moreover, the TGI in the experiment on LOX IMVI melanoma was 31.8 µM; in the experiment with NCI-H23 lung it was > 73.6 µM; in the experiment on HT29 colon it was > 100 µM; in the experiment on IGROV1 ovarian it was 33.4 µM; in the experiment with OVCAR-3 ovarian it was > 81.8 µM; in the experiment with HCT-15 colon, 47.4 µM. The TGI in the experiment on NCI-H460 lung is > 100 µM; in the experiment on HCC-2998 colon it was 50.5 µM; with MOLT-4 leukemia it was > 100 µM; in the experiment on M14 melanoma, 36.2 µM; in the experiment with CCRF-CEM leukemia, > 100 µM; in the experiment on SNB-19 CNS, > 100 µM. The TGI is > 100 µM with U251 CNS and 40.4 µM in the experiment on SK-MEL-28 melanoma.
Consider `CC1(C)CC(=O)C(CC(C(=O)C(=O)Nc2cc(C(F)(F)F)ccc2Cl)C(=O)c2ccco2)C(=O)C1` (stereo not given), for which the TGI in the experiment with NCI-H522 lung, with A498 renal, in the experiment on COLO 205 colon, in the experiment with DU-145 prostate, in the experiment on T-47D breast and in the experiment on KM12 colon was > 100 µM throughout. Moreover, the TGI with LOX IMVI melanoma, in the experiment on NCI-H23 lung, with HT29 colon, with IGROV1 ovarian, with OVCAR-3 ovarian and with HCT-15 colon was > 100 µM each time. Besides, the TGI with NCI-H460 lung, in the experiment with HCC-2998 colon, in the experiment with MOLT-4 leukemia, with M14 melanoma, with CCRF-CEM leukemia and in the experiment on SNB-19 CNS was > 100 µM each time. Also, the TGI with U251 CNS and in the experiment with SK-MEL-28 melanoma was > 100 µM throughout.
